Source: PubChem BioAssay AID328 (DTP/NCI, 2004)
Inconclusive results and toxic doses are left out. Rule for the calls: active = survival T/C of 150% or more; inactive = T/C below 125% in these data.

Test system: BDF1 mice, P388 leukemia ip, median survival T/C
Test: NCI In Vivo Anticancer Drug Screen. Data for tumor model P388 Leukemia (intraperitoneal) in B6D2F1 (BDF1) mice
Settings: endpoint: median survival time, higher = longer survival
Outline: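 Vehicle-dosed animals serve as the reference; survival of compound-dosed, tumour-implanted mice is divided by it.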

[1] = dose: 100.0 mg/kg/injection, schedule: Q04DX003 (ip), vehicle: saline with Tween-80
[2] = dose: 200.0 mg/kg/injection, schedule: Q04DX003 (ip), vehicle: saline with Tween-80
[3] = dose: 400.0 mg/kg/injection, schedule: Q04DX003 (ip), vehicle: saline with Tween-80
[4] = dose: 100.0 mg/kg/injection, schedule: Q04DX003 (ip), vehicle: saline
[5] = dose: 200.0 mg/kg/injection, schedule: Q01DX009 (ip), vehicle: saline
[6] = dose: 200.0 mg/kg/injection, schedule: Q04DX003 (ip), vehicle: saline
[7] = dose: 400.0 mg/kg/injection, schedule: Q01DX009 (ip), vehicle: saline

Measured: T/C

C=C(C)C1CCC2(C=O)CCC3(C)C(CCC4C5(C)CCC(O)C(C)(C)C5CCC43C)C12 (configuration not stated)
inactive: dose: 18.75 mg/kg/injection, schedule: Q01DX009 (ip), vehicle: Klucel (hydroxypropylcellulose) (HPC) 91 % of control | dose: 37.5 mg/kg/injection, schedule: Q01DX009 (ip), vehicle: Klucel (hydroxypropylcellulose) (HPC) 88 % of control | dose: 75.0 mg/kg/injection, schedule: Q01DX009 (ip), vehicle: Klucel (hydroxypropylcellulose) (HPC) 95 % of control

O=[N+]([O-])c1ccc(SNc2ccc(O)cc2)cc1[N+](=O)[O-]
inactive: dose: 100.0 mg/kg/injection, schedule: Q01DX009 (ip), vehicle: Klucel (hydroxypropylcellulose) (HPC) 100 % of control | dose: 100.0 mg/kg/injection, schedule: Q04DX003 (ip), vehicle: Klucel (hydroxypropylcellulose) (HPC) 100 % of control | dose: 200.0 mg/kg/injection, schedule: Q01DX009 (ip), vehicle: Klucel (hydroxypropylcellulose) (HPC) 90 % of control | dose: 200.0 mg/kg/injection, schedule: Q04DX003 (ip), vehicle: Klucel (hydroxypropylcellulose) (HPC) 104 % of control | dose: 400.0 mg/kg/injection, schedule: Q01DX009 (ip), vehicle: Klucel (hydroxypropylcellulose) (HPC) 109 % of control | dose: 400.0 mg/kg/injection, schedule: Q04DX003 (ip), vehicle: Klucel (hydroxypropylcellulose) (HPC) 104 % of control

C(=C\c1ccc2ccccc2n1)/c1ccc2c(c1)OCO2
inactive: [1] 100 % of control | [2] 100 % of control | [3] 88 % of control

C=C1C(=O)OC2/C=C(\C)C(=O)/C=C\C(C)(O)CC(OC(=O)C(C)C)C12 (configuration not stated)
inactive: dose: 25.0 mg/kg/injection, schedule: Q01DX009 (ip), vehicle: saline + alcohol 100 % of control

CC(CN1c2ccccc2Sc2ccccc21)N(C)C (configuration not stated)
inactive: dose: 18.75 mg/kg/injection, schedule: Q01DX009 (ip), vehicle: saline 100 % of control | dose: 37.5 mg/kg/injection, schedule: Q04DX003 (ip), vehicle: saline 121 % of control | dose: 75.0 mg/kg/injection, schedule: Q04DX003 (ip), vehicle: saline 117 % of control | dose: 150.0 mg/kg/injection, schedule: Q04DX003 (ip), vehicle: saline 95 % of control

O=C1c2ccccc2C(=O)N1c1ccc(S(=O)(=O)c2ccc(N3C(=O)c4ccccc4C3=O)cc2)cc1
inactive: dose: 87.5 mg/kg/injection, schedule: Q01DX009 (ip), vehicle: saline with Tween-80 104 % of control | dose: 175.0 mg/kg/injection, schedule: Q01DX009 (ip), vehicle: saline with Tween-80 100 % of control | dose: 350.0 mg/kg/injection, schedule: Q01DX009 (ip), vehicle: saline with Tween-80 98 % of control

Nc1c(Cl)cc(S(N)(=O)=O)cc1Cl
inactive: dose: 100.0 mg/kg/injection, schedule: Q01DX009 (ip), vehicle: saline with Tween-80 86 % of control | [1] 104 % of control | dose: 200.0 mg/kg/injection, schedule: Q01DX009 (ip), vehicle: saline with Tween-80 90 % of control | [2] 104 % of control | [3] 100 % of control

C#CC1(OCC2CO2)CCCCC1 (configuration not stated)
inactive: dose: 100.0 mg/kg/injection, schedule: Q01DX009 (ip), vehicle: saline 92 % of control | [4] 110 % of control | [5] 103 % of control | [6] 110 % of control | [7] 92 % of control

CNNCc1ccc(C(=O)NC(N)=O)cc1
inactive: [4] 95 % of control | dose: 133.0 mg/kg/injection, schedule: Q01DX009 (ip), vehicle: saline 111 % of control | [5] 100 % of control | [6] 95 % of control | [7] 107 % of control | dose: 400.0 mg/kg/injection, schedule: Q04DX003 (ip), vehicle: saline 113 % of control

C=C1C(O)C2(O)OCC34C(CC5C(C)=CC(=O)C(OC)C5(C)C23)OC(=O)C(OC(=O)C(C)CC)C14 (configuration not stated)
inactive: dose: 0.06 mg/kg/injection, schedule: Q01DX009 (ip), vehicle: saline with Tween-80 98 % of control | dose: 0.12 mg/kg/injection, schedule: Q01DX009 (ip), vehicle: saline with Tween-80 112 % of control | dose: 0.25 mg/kg/injection, schedule: Q01DX009 (ip), vehicle: saline with Tween-80 105 % of control | dose: 0.5 mg/kg/injection, schedule: Q01DX009 (ip), vehicle: saline with Tween-80 110 % of control | dose: 1.0 mg/kg/injection, schedule: Q01DX009 (ip), vehicle: saline with Tween-80 120 % of control | dose: 2.0 mg/kg/injection, schedule: Q01DX009 (ip), vehicle: saline with Tween-80 115 % of control
